Results: patent US20240115881A1, “METHODS AND SYSTEMS FOR DETERMINING THE DISTRIBUTION OF RADIATION DOSE AND RESPONSE” (priority 2022, published 2024)

Tested on: V79 cells
Test: cellular uptake by flow cytometry (fluorescence intensity per cell, MFI)
Type: cell-based, Chinese hamster
Settings: linear least squares fit; for slope of net MFI versus extracellular drug concentration, low concentrations: Cdauno<0.6 μmol/L, Cdoxo<1 μmol/L; for slope of net MFI versus extracellular drug concentration, high concentrations: Cdauno>0.6 μmol/L (+1161), Cdoxo>1 μmol/L (+29)
Method: Briefly, flow cytometry was used to quantify their mean fluorescence intensity (MFI) per cell, <I>, as a function of the concentration of the agent in the cell culture medium. The net mean fluorescence intensities per cell, <I>net, were determined by subtracting control autofluorescence <I>control, according to the following equation: […]
^210Po-Citrate. The uptake of ^210Po-citrate was determined on a cell-by-cell basis by flow cytometric techniques, using ^210Po-free citrate. Briefly, V79 cells (2×10^6 cells/mL) were treated with 0-3 mmol/L of citrate and incubated on a rocker-roller as described earlier. Cellular uptake of citrate was tracked using an europium tetracycline (EuTc) conjugate. Samples were washed 2× with 10 mmol/L MOPS buffer (Sigma, St. Louis, catalog no. M3183), after a 30 min exposure to citrate. The cells were resuspended in 1 mL of MOPS buffer containing EuTc (Sigma, catalog nos. 203254 for Eu and T7660 for Tc), transferred into 7 ml polystyrene flow cytometry tubes (BD, catalog no. 352054), and were incubated at room temperature (˜22° C.) in the dark for 30 min. The final concentration of EuTc was 100 μmol/L. EuTc forms a ternary complex with citrate (EuTc-citrate) which is excitable at 488 nm, and its emission can be captured within the wavelengths transmitted by the 610/20 filter. After washing 2× with MOPS buffer, the samples were resuspended in 1 mL of MOPS buffer, passed 5× through a 21-gauge needle, and were analyzed by flow cytometry using an LSR II flow cytometer (BD), equipped with a 488 nm laser. Cellular incorporation of citrate, expressed in terms of the fluorescence intensity per cell or mean fluorescence intensity (MFI) of EuTc-citrate, was used as a surrogate measure cellular uptake of ^210Po-citrate.
To determine the cellular uptake of daunomycin and doxorubicin, the cells were treated with 0-10 μmol/L of each drug in MEMB and incubated on a rocker-roller for 2.5 h. The cells were washed 2× with phosphate buffered saline (PBS), resuspended in 1 mL of PBS, passed 5× through a needle, and were immediately subjected to flow cytometric analysis. The 488 nm laser was used to excite intracellular daunomycin and doxorubicin, and the emission spectra were captured within the wavelengths transmitted by the 575/26 and 530/30 filters, respectively. Cellular incorporation of drugs was also expressed as MFI.

COc1cccc2c1C(=O)c1c(O)c3c(c(O)c1C2=O)C[C@@](O)(C(C)=O)C[C@@H]3O[C@H]1C[C@H](N)[C@H](O)[C@H](C)O1 [daunomycin]
slope of net MFI versus extracellular drug concentration, low concentrations: 5922 (μmol/L)^−1 | slope of net MFI versus extracellular drug concentration, high concentrations: 2480 (μmol/L)^−1

COc1cccc2c1C(=O)c1c(O)c3c(c(O)c1C2=O)C[C@@](O)(C(=O)CO)C[C@@H]3O[C@H]1C[C@H](N)[C@H](O)[C@H](C)O1 [doxorubicin]
slope of net MFI versus extracellular drug concentration, low concentrations: 61 (μmol/L)^−1 | slope of net MFI versus extracellular drug concentration, high concentrations: 40 (μmol/L)^−1
